The supplement of paper PMC10307832

How the values were obtained:
Test in all cases: relative viability (nuclei count vs DMSO), 5 days (fraction); higher = more cells survive
HCC-827 = system: HCC-827
Summary of the method: (§1)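 Lung cancer cell lines in 1536-well plates got either a single drug or a fixed anchor-drug dose together with five library-drug doses (not always all listed) in √10 steps, by pin tool, on the day after seeding. Nuclei were counted after 5 days, and relative viability is the treated-to-vehicle ratio of nuclei counts. Values are medians of duplicate plates.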

NCI-H2087 = system: NCI-H2087
Summary of the method: as §1

CAL-12T = system: CAL-12T
Summary of the method: as §1

HCC-366 = system: HCC-366
Summary of the method: as §1

NCI-H1993 = system: NCI-H1993
Summary of the method: as §1

NCI-H727 = system: NCI-H727
Summary of the method: as §1

LCLC-97TM1 = system: LCLC-97TM1
Summary of the method: as §1

COR-L 105 = system: COR-L 105
Summary of the method: as §1

NCI-H2009 = system: NCI-H2009
Summary of the method: as §1

NCI-H2170 = system: NCI-H2170
Summary of the method: as §1

HOP-62 = system: HOP-62
Summary of the method: as §1

LXF-289 = system: LXF-289
Summary of the method: as §1

PC-3 [JPC-3] = system: PC-3 [JPC-3]
Summary of the method: as §1

PC-14 = system: PC-14
Summary of the method: as §1

HARA = system: HARA
Summary of the method: as §1

COR-L23 = system: COR-L23
Summary of the method: as §1

HCC-44 = system: HCC-44
Summary of the method: as §1

LC-2-ad = system: LC-2-ad
Summary of the method: as §1

BEN = system: BEN
Summary of the method: as §1

SK-MES-1 = system: SK-MES-1
Summary of the method: as §1

LU99A = system: LU99A
Summary of the method: as §1

HCC-15 = system: HCC-15
Summary of the method: as §1

NCI-H2126 = system: NCI-H2126
Summary of the method: as §1

Molecule O=c1[nH]c2ccccc2n1C1CCN(CCCC(c2ccc(F)cc2)c2ccc(F)cc2)CC1 [Pimozide] + CC(=O)c1c(C)c2cnc(Nc3ccc(N4CCNCC4)cn3)nc2n(C2CCCC2)c1=O [Palbociclib] (partner 0.5 µM) has a relative viability (HCC-827; first compound 0.253 µM) of 0.449, a relative viability (HCC-827; first compound 0.8 µM) of 0.459 and a relative viability (HCC-827; first compound 2.53 µM) of 0.484. For the same molecule, the relative viability (HCC-827; first compound 8 µM) was 0.514, the relative viability (NCI-H2087; first compound 0.08 µM) was 0.197 and the relative viability (NCI-H2087; first compound 0.253 µM) was 0.233. It also gave a relative viability (NCI-H2087; first compound 2.53 µM) of 0.274, a relative viability (NCI-H2087; first compound 8 µM) of 0.195 and a relative viability (CAL-12T; first compound 0.08 µM) of 0.473. It also gave a relative viability (CAL-12T; first compound 0.253 µM) of 0.416, a relative viability (CAL-12T; first compound 0.8 µM) of 0.442 and a relative viability (CAL-12T; first compound 2.53 µM) of 0.295. The relative viability (CAL-12T; first compound 8 µM) was 0.269, the relative viability (HCC-366; first compound 0.08 µM) was 0.38 and the relative viability (HCC-366; first compound 0.253 µM) was 0.404. It also gave a relative viability (HCC-366; first compound 0.8 µM) of 0.345, a relative viability (HCC-366; first compound 2.53 µM) of 0.379 and a relative viability (HCC-366; first compound 8 µM) of 0.357. The relative viability (NCI-H1993; first compound 0.08 µM) was 0.616, the relative viability (NCI-H1993; first compound 0.253 µM) was 0.58 and the relative viability (NCI-H1993; first compound 0.8 µM) was 0.653. The relative viability (NCI-H1993; first compound 2.53 µM) was 0.556, the relative viability (NCI-H1993; first compound 8 µM) was 0.558 and the relative viability (NCI-H727; first compound 0.08 µM) was 0.544. For the same molecule, the relative viability (NCI-H727; first compound 0.253 µM) was 0.661, the relative viability (NCI-H727; first compound 0.8 µM) was 0.696 and the relative viability (NCI-H727; first compound 2.53 µM) was 0.676. For the same molecule, the relative viability (NCI-H727; first compound 8 µM) was 0.609, the relative viability (LCLC-97TM1; first compound 0.08 µM) was 0.203 and the relative viability (LCLC-97TM1; first compound 0.253 µM) was 0.237. The relative viability (LCLC-97TM1; first compound 0.8 µM) was 0.203, the relative viability (LCLC-97TM1; first compound 2.53 µM) was 0.167 and the relative viability (LCLC-97TM1; first compound 8 µM) was 0.251. The relative viability (COR-L 105; first compound 0.08 µM) was 0.378, the relative viability (COR-L 105; first compound 0.253 µM) was 0.399 and the relative viability (COR-L 105; first compound 0.8 µM) was 0.409. The relative viability (COR-L 105; first compound 2.53 µM) was 0.426, the relative viability (COR-L 105; first compound 8 µM) was 0.416 and the relative viability (NCI-H2009; first compound 0.08 µM) was 0.202. The relative viability (NCI-H2009; first compound 0.253 µM) was 0.307, the relative viability (NCI-H2009; first compound 0.8 µM) was 0.178 and the relative viability (NCI-H2009; first compound 2.53 µM) was 0.226. It also gave a relative viability (NCI-H2009; first compound 8 µM) of 0.188, a relative viability (NCI-H2170; first compound 0.08 µM) of 0.384 and a relative viability (NCI-H2170; first compound 0.253 µM) of 0.363. It also gave a relative viability (NCI-H2170; first compound 0.8 µM) of 0.365, a relative viability (NCI-H2170; first compound 2.53 µM) of 0.358 and a relative viability (NCI-H2170; first compound 8 µM) of 0.369. The relative viability (HOP-62; first compound 0.08 µM) was 0.412, the relative viability (HOP-62; first compound 0.253 µM) was 0.391 and the relative viability (HOP-62; first compound 2.53 µM) was 0.361. For the same molecule, the relative viability (HOP-62; first compound 8 µM) was 0.442, the relative viability (LXF-289; first compound 0.08 µM) was 0.588 and the relative viability (LXF-289; first compound 0.253 µM) was 0.607. For the same molecule, the relative viability (LXF-289; first compound 0.8 µM) was 0.571, the relative viability (LXF-289; first compound 2.53 µM) was 0.574 and the relative viability (LXF-289; first compound 8 µM) was 0.586. For the same molecule, the relative viability (PC-3 [JPC-3]; first compound 0.253 µM) was 0.551, the relative viability (PC-3 [JPC-3]; first compound 0.8 µM) was 0.481 and the relative viability (PC-3 [JPC-3]; first compound 2.53 µM) was 0.544. It also gave a relative viability (PC-3 [JPC-3]; first compound 8 µM) of 0.509, a relative viability (PC-14; first compound 0.253 µM) of 0.579 and a relative viability (PC-14; first compound 0.8 µM) of 0.368. For the same molecule, the relative viability (PC-14; first compound 2.53 µM) was 0.219, the relative viability (PC-14; first compound 8 µM) was 0.178 and the relative viability (HARA; first compound 0.08 µM) was 0.278. It also gave a relative viability (HARA; first compound 0.253 µM) of 0.263, a relative viability (HARA; first compound 0.8 µM) of 0.22 and a relative viability (HARA; first compound 2.53 µM) of 0.255. It also gave a relative viability (HARA; first compound 8 µM) of 0.178, a relative viability (COR-L23; first compound 0.08 µM) of 0.291 and a relative viability (COR-L23; first compound 0.253 µM) of 0.346. For the same molecule, the relative viability (COR-L23; first compound 0.8 µM) was 0.293, the relative viability (COR-L23; first compound 2.53 µM) was 0.267 and the relative viability (COR-L23; first compound 8 µM) was 0.307. It also gave a relative viability (HCC-44; first compound 0.08 µM) of 0.975, a relative viability (HCC-44; first compound 0.253 µM) of 0.982 and a relative viability (HCC-44; first compound 0.8 µM) of 0.946. For the same molecule, the relative viability (HCC-44; first compound 2.53 µM) was 0.925, the relative viability (HCC-44; first compound 8 µM) was 0.859 and the relative viability (LC-2-ad; first compound 0.08 µM) was 0.517. It also gave a relative viability (LC-2-ad; first compound 0.253 µM) of 0.474, a relative viability (LC-2-ad; first compound 0.8 µM) of 0.475 and a relative viability (LC-2-ad; first compound 2.53 µM) of 0.472. For the same molecule, the relative viability (LC-2-ad; first compound 8 µM) was 0.482, the relative viability (BEN; first compound 0.08 µM) was 0.442 and the relative viability (BEN; first compound 0.253 µM) was 0.472. The relative viability (BEN; first compound 0.8 µM) was 0.451, the relative viability (BEN; first compound 2.53 µM) was 0.457 and the relative viability (BEN; first compound 8 µM) was 0.494. For the same molecule, the relative viability (SK-MES-1; first compound 0.08 µM) was 0.307, the relative viability (SK-MES-1; first compound 0.253 µM) was 0.298 and the relative viability (SK-MES-1; first compound 0.8 µM) was 0.303. The relative viability (SK-MES-1; first compound 2.53 µM) was 0.316, the relative viability (SK-MES-1; first compound 8 µM) was 0.314 and the relative viability (LU99A; first compound 0.08 µM) was 0.407. It also gave a relative viability (LU99A; first compound 0.8 µM) of 0.388, a relative viability (LU99A; first compound 2.53 µM) of 0.421 and a relative viability (LU99A; first compound 8 µM) of 0.41. For the same molecule, the relative viability (HCC-15; first compound 0.08 µM) was 0.747, the relative viability (HCC-15; first compound 0.253 µM) was 0.641 and the relative viability (HCC-15; first compound 0.8 µM) was 0.673. The relative viability (HCC-15; first compound 2.53 µM) was 0.652, the relative viability (HCC-15; first compound 8 µM) was 0.653 and the relative viability (NCI-H2126; first compound 0.08 µM) was 0.373. The relative viability (NCI-H2126; first compound 0.253 µM) was 0.321, the relative viability (NCI-H2126; first compound 0.8 µM) was 0.369 and the relative viability (NCI-H2126; first compound 2.53 µM) was 0.363. The relative viability (NCI-H2126; first compound 8 µM) was 0.365.
